Several values for one entry are separate records, joined by “and”; a condition that tells them apart may be missing. Equal values may be shown once.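 Values below derive from 48-hour exposures of cells grown in 96-well plates, with endpoints linearly interpolated between the two concentrations bracketing the appropriate inhibition level. GI50: concentration for 50% inhibition of growth. TGI: concentration producing complete growth inhibition.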 Where only a bound is given, the exact number is not on record here.

The first experiment has as its system SNB-19 CNS. Nature of the experiment: NCI-60 cell line screen, 48 h.
Consider `Cc1csc(Nc2nc(-c3cccc(Br)c3)nc(C(Cl)(Cl)Cl)n2)n1`, for which the GI50 is 2.87 µM and the TGI was more than 100 µM.

As for `COc1c(OC)c(OC)c(C(=O)/C=C/c2ccccc2)c(OC)c1OC`, the TGI amounted to 25.1 µM.

Turning to `NS(=O)(=O)c1ccc(N(/C=C/C(=O)C(F)(F)F)CC(=O)c2ccc(Cl)cc2)cc1`, the GI50 is 51.2 µM and the TGI was more than 100 µM.

For the compound `CS(=O)(=O)CCCn1c(=O)c(Oc2ccc(F)cc2F)cc2cnc(NC3CCOCC3)nc21`, the GI50 is more than 25 µM and the TGI was more than 25 µM.

Turning to `N#C/C=C(\c1ccc([N+](=O)[O-])cc1)n1nnc2cc(Cl)c(Cl)cc21`, the GI50 was 2.37 µM and the TGI worked out at 7.14 µM.

Regarding `CCN(CC)CCOc1ccc(/C=C2\CC3C4CC=C5C[C@@H](O)CC[C@]5(C)C4CC[C@]3(C)C2=O)cc1OC` (stereo partly drawn), the GI50 is 4.67 µM and the TGI was more than 64 µM.

Regarding `O=C(CC(O)(C(F)(F)F)C(F)(F)F)c1cc(CC(=O)C(O)(C(F)(F)F)C(F)(F)F)cc(CC(=O)C(O)(C(F)(F)F)C(F)(F)F)c1`, the TGI was more than 10 µM.

Turning to `O=c1c2ccccc2sc2cccc(NCCCN3CCN(CCCNc4cccc5sc6ccccc6c(=O)c45)CC3)c12`, the TGI is more than 100 µM.

For `Cc1cn2c(/C=C3\C(=O)Nc4ccc(O)cc43)c(-c3ccc(Cl)cc3)nc2s1`, the GI50 was 15.2 µM and the TGI stood at 39.1 µM.

Turning to `CC1(C)OCCn2c1nc1c(N3CCOCC3)nc(-c3cnc(N)nc3)nc12`, the GI50 was 1.01 µM and the TGI is more than 30.2 µM.

Turning to `O=C(c1c(F)ccc(NS(=O)(=O)N2CC[C@@H](F)C2)c1F)c1c[nH]c2ncc(-c3cnc(C4CC4)nc3)cc12`, the GI50 is > 10 µM and 9.77 µM; the TGI is more than 85.4 µM.

With `COc1cc(-c2nn(-c3cccc(NC(=O)Nc4ccc(Cl)c(Cl)c4)c3)cc2-c2ccncc2)ccc1Cl`, the GI50 is 1.72 µM and the TGI was more than 50 µM.

`Nc1nc(N)c(N=Nc2ccc([As](=O)(O)O)cc2)c(=O)[nH]1` had a TGI of more than 100 µM.

For `CCOC(=O)C(=Cc1cccc(Cl)c1)C(=O)OCC`, the GI50 is 2.37 µM and the TGI was found to be 6.66 µM.

Turning to `C=CC(=O)N1CCC(C2CCNc3c(C(N)=O)c(-c4ccc(Oc5ccccc5)cc4)nn32)CC1` (stereo not drawn), the GI50 was 14.4 µM and the TGI was more than 100 µM.

For `CCCCCCNC(=O)c1nc(-c2ccccc2)oc1Cc1ccc(OP(=O)(O)O)cc1`, the GI50 is 22 µM and the TGI was more than 100 µM.

Turning to `Cc1ccc(/C=C/c2c(C(=O)/C=C/c3ccc(C(F)(F)F)cc3)c(C)nc3ccccc23)cc1`, the GI50 is 1.55 µM and the TGI came to 2.88 µM.

For `CCCn1c(N)c(C(=O)N/N=C(/C)c2cc3cccc(OC)c3o2)sc1=S`, the GI50 was 30.2 µM and the TGI is more than 100 µM.

Consider `C=CCc1cccc(/C=N/NC(=O)CN2CCN(Cc3ccccc3)CC2)c1O`, for which the GI50 is 5.36 µM and the TGI came to 20.1 µM.

Another experiment deals with SK-MEL-2 melanoma. Nature of the experiment: NCI-60 cell line screen, 48 h.
`Cc1csc(Nc2nc(-c3cccc(Br)c3)nc(C(Cl)(Cl)Cl)n2)n1`: the GI50 is more than 100 µM and the TGI was more than 100 µM.

Consider `COc1c(OC)c(OC)c(C(=O)/C=C/c2ccccc2)c(OC)c1OC`, for which the TGI came to 45 µM.

As for `NS(=O)(=O)c1ccc(N(/C=C/C(=O)C(F)(F)F)CC(=O)c2ccc(Cl)cc2)cc1`, the GI50 is 38.1 µM and the TGI is more than 100 µM.

Turning to `CS(=O)(=O)CCCn1c(=O)c(Oc2ccc(F)cc2F)cc2cnc(NC3CCOCC3)nc21`, the GI50 was more than 25 µM and the TGI was more than 25 µM.

For the compound `N#C/C=C(\c1ccc([N+](=O)[O-])cc1)n1nnc2cc(Cl)c(Cl)cc21`, the GI50 is 2.56 µM and the TGI turned out to be 6.42 µM.

Take `CCN(CC)CCOc1ccc(/C=C2\CC3C4CC=C5C[C@@H](O)CC[C@]5(C)C4CC[C@]3(C)C2=O)cc1OC` (stereo partly drawn): the GI50 is 7.27 µM and the TGI amounted to 78.3 µM.

Take `O=C(CC(O)(C(F)(F)F)C(F)(F)F)c1cc(CC(=O)C(O)(C(F)(F)F)C(F)(F)F)cc(CC(=O)C(O)(C(F)(F)F)C(F)(F)F)c1`: the TGI stood at 3.71 µM.

`O=c1c2ccccc2sc2cccc(NCCCN3CCN(CCCNc4cccc5sc6ccccc6c(=O)c45)CC3)c12` registered a TGI of more than 100 µM.

On to `Cc1cn2c(/C=C3\C(=O)Nc4ccc(O)cc43)c(-c3ccc(Cl)cc3)nc2s1`, for which the GI50 was 21.9 µM and the TGI came to 70.5 µM.

On to `CC1(C)OCCn2c1nc1c(N3CCOCC3)nc(-c3cnc(N)nc3)nc12`, for which the GI50 is 0.372 µM and the TGI turned out to be 3.79 µM.

Turning to `O=C(c1c(F)ccc(NS(=O)(=O)N2CC[C@@H](F)C2)c1F)c1c[nH]c2ncc(-c3cnc(C4CC4)nc3)cc12`, the GI50 was 2.17 µM and 3.25 µM; the TGI is > 8.34 µM and 15.7 µM.

On to `COc1cc(-c2nn(-c3cccc(NC(=O)Nc4ccc(Cl)c(Cl)c4)c3)cc2-c2ccncc2)ccc1Cl`, for which the GI50 was 1.14 µM and the TGI came out at 2.35 µM.

Consider `Nc1nc(N)c(N=Nc2ccc([As](=O)(O)O)cc2)c(=O)[nH]1`, for which the TGI is more than 100 µM.

Take `CCOC(=O)C(=Cc1cccc(Cl)c1)C(=O)OCC`: the GI50 is 2.1 µM and the TGI was determined as 4.24 µM.

Regarding `C=CC(=O)N1CCC(C2CCNc3c(C(N)=O)c(-c4ccc(Oc5ccccc5)cc4)nn32)CC1` (stereo not drawn), the GI50 is 20.3 µM and the TGI came to 40.4 µM.

Turning to `CCCCCCNC(=O)c1nc(-c2ccccc2)oc1Cc1ccc(OP(=O)(O)O)cc1`, the GI50 is 19 µM and the TGI is 37.1 µM.

`Cc1ccc(/C=C/c2c(C(=O)/C=C/c3ccc(C(F)(F)F)cc3)c(C)nc3ccccc23)cc1`: the GI50 was 1.83 µM and the TGI was 3.92 µM.

Regarding `CCCn1c(N)c(C(=O)N/N=C(/C)c2cc3cccc(OC)c3o2)sc1=S`, the GI50 was 53.3 µM and the TGI was more than 100 µM.

With `C=CCc1cccc(/C=N/NC(=O)CN2CCN(Cc3ccccc3)CC2)c1O`, the GI50 was 2.31 µM and the TGI stood at 11.5 µM.

The values above are taken from PubChem BioAssay (NCI).
